What all share (assay type): biochemical
One experiment deals with T1, PDR (Burkholderia cepacia, UniProt P33164).
T1 construct: gene ophA1; codon-optimised gene in pET-28a(+), N-terminal 6xHis tag, E. coli JM109(DE3), Ni-sepharose purified; flavin and [2Fe-2S] domains
T1 sequence (P33164 2-322): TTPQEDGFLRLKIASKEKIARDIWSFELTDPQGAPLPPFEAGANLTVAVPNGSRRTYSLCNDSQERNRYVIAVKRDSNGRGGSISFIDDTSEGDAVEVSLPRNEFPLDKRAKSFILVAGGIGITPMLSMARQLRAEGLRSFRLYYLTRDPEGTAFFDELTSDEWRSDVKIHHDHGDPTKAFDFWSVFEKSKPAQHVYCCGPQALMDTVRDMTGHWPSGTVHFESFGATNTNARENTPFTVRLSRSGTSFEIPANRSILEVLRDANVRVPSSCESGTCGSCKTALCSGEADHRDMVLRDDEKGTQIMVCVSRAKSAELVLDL
As to the kind of experiment: ABTS-HRP assay of H2O2 formed. As to conditions: 24 h; GDH-based NADH regeneration; O2 uncoupling, no ferredoxin.

In the next experiment the target is T2, VanB (Pseudomonas aeruginosa, UniProt Q9HUQ8).
T2 construct: codon-optimised gene in pET-28a(+), N-terminal 6xHis tag, E. coli JM109(DE3), Ni-sepharose purified; flavin and [2Fe-2S] domains
T2 sequence (Q9HUQ8 1-317): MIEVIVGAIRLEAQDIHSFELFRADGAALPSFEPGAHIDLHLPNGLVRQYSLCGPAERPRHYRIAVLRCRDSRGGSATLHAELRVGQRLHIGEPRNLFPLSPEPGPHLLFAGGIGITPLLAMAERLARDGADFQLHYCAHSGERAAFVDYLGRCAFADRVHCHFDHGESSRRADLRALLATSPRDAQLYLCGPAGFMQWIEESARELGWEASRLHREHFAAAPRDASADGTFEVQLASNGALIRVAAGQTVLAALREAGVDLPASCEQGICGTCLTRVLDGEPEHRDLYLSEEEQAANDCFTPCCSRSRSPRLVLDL
As to the kind of experiment: ABTS-HRP assay of H2O2 formed. As to conditions: 24 h; GDH-based NADH regeneration; O2 uncoupling, no ferredoxin.

The target in experiment [1] is T3, CDO (CDO-WT; CDO-Oxy with CDO-Fd and CDO-Red) (Pseudomonas fluorescens, UniProt Q51743).
T3 construct: gene cumA1; codon-optimised genes in pET-28a(+), N-terminal 6xHis tag, E. coli JM109(DE3), Ni-sepharose purified; components mixed in vitro; with Cumene dioxygenase terminal oxygenase small (beta) subunit; Cumene dioxygenase ferredoxin; Cumene dioxygenase ferredoxin reductase
Briefly: GC-FID product quantification. As to conditions: 30 °C, 24 h, pH 7.2; NAD+ with GDH/glucose NADH regeneration, catalase, 1 mM DTT; O2.

T3 sequence (Q51743 1-459): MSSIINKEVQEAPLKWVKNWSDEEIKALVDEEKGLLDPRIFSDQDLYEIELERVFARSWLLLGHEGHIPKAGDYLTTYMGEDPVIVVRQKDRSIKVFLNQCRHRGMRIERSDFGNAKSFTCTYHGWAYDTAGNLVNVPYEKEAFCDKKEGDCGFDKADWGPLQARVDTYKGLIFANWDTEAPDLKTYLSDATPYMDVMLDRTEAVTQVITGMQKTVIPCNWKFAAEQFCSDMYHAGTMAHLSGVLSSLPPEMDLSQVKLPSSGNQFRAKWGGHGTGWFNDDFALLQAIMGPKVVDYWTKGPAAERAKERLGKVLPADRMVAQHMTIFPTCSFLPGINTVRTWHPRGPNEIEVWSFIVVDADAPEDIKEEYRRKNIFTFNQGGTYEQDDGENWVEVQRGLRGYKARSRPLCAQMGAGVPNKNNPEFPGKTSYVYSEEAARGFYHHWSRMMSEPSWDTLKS
T3 sequence (Q51744 1-186 partner): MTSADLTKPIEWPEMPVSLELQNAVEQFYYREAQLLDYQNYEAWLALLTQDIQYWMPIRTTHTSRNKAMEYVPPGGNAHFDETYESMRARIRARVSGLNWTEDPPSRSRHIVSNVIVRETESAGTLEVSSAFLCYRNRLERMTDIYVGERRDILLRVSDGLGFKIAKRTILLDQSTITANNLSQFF

With `NC(=O)C1=CN([C@@H]2O[C@H](COP(=O)(O)OP(=O)(O)OC[C@H]3O[C@@H](n4cnc5c(N)ncnc54)[C@H](O)[C@@H]3O)[C@@H](O)[C@H]2O)C=CC1` [NADH], the “ABTS-HRP assay of H2O2 formed” value is “the H2O2 formation by PDR and VanB was evaluated analogously” on PDR; “the H2O2 formation by PDR and VanB was evaluated analogously” on VanB.

Consider `C1=Cc2ccccc2C1` [compound 1, indene], for which the GC-FID product quantification entry in experiment [1] is given as “product formation in in vitro reactions with complete CDO-WT”.

(Values after article doi:10.1101/2024.02.16.580709v1, “Developing Hybrid Systems to Address O2 Uncoupling in Multi-Component Rieske Oxygenases” (biorxiv, 2024).)
